Measured values as given in PMC4264455 (British Journal of Cancer, 2014).

System: patients with advanced refractory solid tumours or non-Hodgkin's lymphoma
Assay: Phase I dose escalation: safety, tolerability, DLT and adverse events
Format: in vivo, human

SMILES: O=C(NC1CCNCC1)c1n[nH]cc1NC(=O)c1c(Cl)cccc1Cl [AT7519, N-(4-piperidinyl)-4-(2,6-dichlorobenzoylamino)-1H-pyrazole-3-carboxamide]
- ALP elevation: No. of patients with AEs of any grade (14.4 mg m^−2 (n=5)): 3 No. of patients
- AST elevation: No. of patients with AEs of any grade (14.4 mg m^−2 (n=5)): 2 No. of patients
- Anaemia: No. of patients with AEs of any grade (14.4 mg m^−2 (n=5)): 5 No. of patients
- Anorexia: No. of patients with AEs of any grade (14.4 mg m^−2 (n=5)): 0 No. of patients
- Creatinine elevation: No. of patients with AEs of any grade (14.4 mg m^−2 (n=5)): 1 No. of patients
- Diarrhoea: No. of patients with AEs of any grade (14.4 mg m^−2 (n=5)): 0 No. of patients
- Fatigue: No. of patients with AEs of any grade (14.4 mg m^−2 (n=5)): 0 No. of patients
- Hyperglycaemia (random): No. of patients with AEs of any grade (14.4 mg m^−2 (n=5)): 0 No. of patients
- Infection without neutropenia: No. of patients with AEs of any grade (14.4 mg m^−2 (n=5)): 0 No. of patients
- Lymphopenia: No. of patients with AEs of any grade (14.4 mg m^−2 (n=5)): 4 No. of patients
- Mucositis: No. of patients with AEs of any grade (14.4 mg m^−2 (n=5)): 0 No. of patients
- Nausea: No. of patients with AEs of any grade (14.4 mg m^−2 (n=5)): 1 No. of patients
- Neutropenia: No. of patients with AEs of any grade (14.4 mg m^−2 (n=5)): 0 No. of patients
- Thrombocytopenia: No. of patients with AEs of any grade (14.4 mg m^−2 (n=5)): 0 No. of patients
- Vomiting: No. of patients with AEs of any grade (14.4 mg m^−2 (n=5)): 1 No. of patients
- ALP elevation: No. of patients with AEs of any grade (21.6 mg m^−2 (n=7)): 5 No. of patients
- AST elevation: No. of patients with AEs of any grade (21.6 mg m^−2 (n=7)): 2 No. of patients
- Anaemia: No. of patients with AEs of any grade (21.6 mg m^−2 (n=7)): 6 No. of patients
- Anorexia: No. of patients with AEs of any grade (21.6 mg m^−2 (n=7)): 1 No. of patients
- Creatinine elevation: No. of patients with AEs of any grade (21.6 mg m^−2 (n=7)): 1 No. of patients
- Diarrhoea: No. of patients with AEs of any grade (21.6 mg m^−2 (n=7)): 2 No. of patients
- Fatigue: No. of patients with AEs of any grade (21.6 mg m^−2 (n=7)): 4 No. of patients
- Hyperglycaemia (random): No. of patients with AEs of any grade (21.6 mg m^−2 (n=7)): 1 No. of patients
- Infection without neutropenia: No. of patients with AEs of any grade (21.6 mg m^−2 (n=7)): 1 No. of patients
- Lymphopenia: No. of patients with AEs of any grade (21.6 mg m^−2 (n=7)): 5 No. of patients
- Mucositis: No. of patients with AEs of any grade (21.6 mg m^−2 (n=7)): 3 No. of patients
- Nausea: No. of patients with AEs of any grade (21.6 mg m^−2 (n=7)): 2 No. of patients
- Neutropenia: No. of patients with AEs of any grade (21.6 mg m^−2 (n=7)): 0 No. of patients
- Thrombocytopenia: No. of patients with AEs of any grade (21.6 mg m^−2 (n=7)): 1 No. of patients
- Vomiting: No. of patients with AEs of any grade (21.6 mg m^−2 (n=7)): 1 No. of patients
- ALP elevation: No. of patients with AEs of any grade (27.0 mg m^−2 (n=15)): 7 No. of patients
- AST elevation: No. of patients with AEs of any grade (27.0 mg m^−2 (n=15)): 9 No. of patients
- Anaemia: No. of patients with AEs of any grade (27.0 mg m^−2 (n=15)): 12 No. of patients
- Anorexia: No. of patients with AEs of any grade (27.0 mg m^−2 (n=15)): 2 No. of patients
- Creatinine elevation: No. of patients with AEs of any grade (27.0 mg m^−2 (n=15)): 1 No. of patients
- Diarrhoea: No. of patients with AEs of any grade (27.0 mg m^−2 (n=15)): 3 No. of patients
- Fatigue: No. of patients with AEs of any grade (27.0 mg m^−2 (n=15)): 10 No. of patients
- Hyperglycaemia (random): No. of patients with AEs of any grade (27.0 mg m^−2 (n=15)): 9 No. of patients
- Infection without neutropenia: No. of patients with AEs of any grade (27.0 mg m^−2 (n=15)): 3 No. of patients
- Lymphopenia: No. of patients with AEs of any grade (27.0 mg m^−2 (n=15)): 13 No. of patients
- Mucositis: No. of patients with AEs of any grade (27.0 mg m^−2 (n=15)): 11 No. of patients
- Nausea: No. of patients with AEs of any grade (27.0 mg m^−2 (n=15)): 6 No. of patients
- Neutropenia: No. of patients with AEs of any grade (27.0 mg m^−2 (n=15)): 4 No. of patients
- Thrombocytopenia: No. of patients with AEs of any grade (27.0 mg m^−2 (n=15)): 6 No. of patients
- Vomiting: No. of patients with AEs of any grade (27.0 mg m^−2 (n=15)): 4 No. of patients
- ALP elevation: No. of patients with AEs of any grade (32.4 mg m^−2 (n=5)): 5 No. of patients
- AST elevation: No. of patients with AEs of any grade (32.4 mg m^−2 (n=5)): 3 No. of patients
- Anaemia: No. of patients with AEs of any grade (32.4 mg m^−2 (n=5)): 5 No. of patients
- Anorexia: No. of patients with AEs of any grade (32.4 mg m^−2 (n=5)): 1 No. of patients
- Creatinine elevation: No. of patients with AEs of any grade (32.4 mg m^−2 (n=5)): 2 No. of patients
- Diarrhoea: No. of patients with AEs of any grade (32.4 mg m^−2 (n=5)): 0 No. of patients
- Fatigue: No. of patients with AEs of any grade (32.4 mg m^−2 (n=5)): 3 No. of patients
- Hyperglycaemia (random): No. of patients with AEs of any grade (32.4 mg m^−2 (n=5)): 2 No. of patients
- Infection without neutropenia: No. of patients with AEs of any grade (32.4 mg m^−2 (n=5)): 2 No. of patients
- Lymphopenia: No. of patients with AEs of any grade (32.4 mg m^−2 (n=5)): 5 No. of patients
- Mucositis: No. of patients with AEs of any grade (32.4 mg m^−2 (n=5)): 3 No. of patients
- Nausea: No. of patients with AEs of any grade (32.4 mg m^−2 (n=5)): 4 No. of patients
- Neutropenia: No. of patients with AEs of any grade (32.4 mg m^−2 (n=5)): 1 No. of patients
- Thrombocytopenia: No. of patients with AEs of any grade (32.4 mg m^−2 (n=5)): 2 No. of patients
- Vomiting: No. of patients with AEs of any grade (32.4 mg m^−2 (n=5)): 5 No. of patients
